Measurements as given in BigSolDB 2.1.

O=[N+]([O-])c1cn[nH]c1
solubility (mole fraction)
Settings | 288.15 K | 293.15 K | 298.15 K | 303.15 K | 308.15 K | 313.15 K | 318.15 K | 323.15 K | 328.15 K
in THF | 0.00413 | 0.00496 | 0.00592 | 0.00722 | 0.0089 | 0.011 | 0.0134 | 0.017 | 0.022
in acetone | 0.0381 | 0.0405 | 0.0423 | 0.045 | 0.047 | 0.0495 | 0.0525 | 0.0553 | 0.0582
in acetonitrile | 0.0391 | 0.0457 | 0.0529 | 0.0647 | 0.0776 | 0.0906 | 0.108 | 0.124 | 0.135
in ethanol | 0.101 | 0.113 | 0.128 | 0.147 | 0.168 | 0.197 | 0.232 | 0.27 | 0.31
in ethyl acetate | 0.00483 | 0.00609 | 0.00759 | 0.00946 | 0.0118 | 0.0144 | 0.0176 | 0.0214 | 0.0261
in isobutanol | 0.0549 | 0.0648 | 0.0762 | 0.0908 | 0.107 | 0.132 | 0.161 | 0.195 | 0.247
in isopentanol | 0.0629 | 0.0732 | 0.0854 | 0.106 | 0.12 | 0.143 | 0.173 | 0.213 | 0.262
in isopropanol | 0.0481 | 0.0568 | 0.0675 | 0.0827 | 0.0988 | 0.121 | 0.147 | 0.186 | 0.238
in methanol | 0.109 | 0.126 | 0.142 | 0.163 | 0.188 | 0.219 | 0.258 | 0.312 | 0.366
in methyl acetate | 0.00727 | 0.00817 | 0.00942 | 0.0119 | 0.0139 | 0.0169 | 0.0189 | 0.024 | 0.0272
in n-butanol | 0.079 | 0.0902 | 0.104 | 0.12 | 0.14 | 0.166 | 0.199 | 0.241 | 0.283
in n-pentanol | 0.0714 | 0.0823 | 0.095 | 0.112 | 0.132 | 0.156 | 0.189 | 0.232 | 0.276
in n-propanol | 0.0872 | 0.101 | 0.115 | 0.133 | 0.154 | 0.181 | 0.216 | 0.255 | 0.313
in water | 0.00217 | 0.00286 | 0.0036 | 0.00471 | 0.00618 | 0.00763 | 0.00961 | 0.012 | 0.0151
